Data set [1] deals with human diffuse large cell lymphoma B lymphocytes (Pfeiffer cell). Nature of the data set: Pfeiffer cell proliferation, Calcein AM staining. In kind it is cell-based. The note with it: Homo sapiens, Pfeiffer; data of 14th day; read-out: Pfeiffer Proliferation IC50 Nanomoles per Liter.
Text: The diffuse large cell lymphoma B lymphocytes (Pfeiffer cells) were collected and counted when growing well.
Data set [2] concerns human diffuse large B-cell lymphoma cells (Karpas 422 cell). Briefly: Karpas 422 cell proliferation, Calcein AM staining. In kind it is cell-based. The note with it: Homo sapiens.
A short description of data set [3]: Pharmacokinetic experiment in rats. In kind it is in vivo, SD rats. The note with it: for AUC / Cmax / bioavailability: male, SD, rat; for AUC: read-out: Area Curve (AUC, ng/mL · h); for half-life: male, SD, rat, plasma; rats, Intravenous-Dose 4 mg/kg; read-out: Half life T1/2, h) (converted); for Cmax: read-out: Blood Drug level (Cmax, ng/mL). As to the method: A certain amount of compound was weighted and dissolved in 0.1% Tween under vortex and ultrasound, and 0.5% carboxymethyl cellulose sodium (CMC-NA) solution was added to form a uniform solution.

Setting [4] is: KARPAS-422, data of 14th day, read-out: Karpas422 Proliferation IC50 Nanomoles per Liter.
Where [5] appears, read: plasma, rats, Intravenous-Dose 4 mg/kg.
Where [6] appears, read: plasma, rats, Oral-Dose 20 mg/kg.
The mark [7] stands for this setting: plasma, rats, oral 20 mg/kg vs intravenous 4 mg/kg, read-out: Bioavailability (P %).
Where [8] appears, read: KARPAS-422, read-out: Karpas422 Proliferation IC50 Nanomoles per Liter (nM).

Where a name gives a salt, the structure may show the parent alone. Read-outs that look alike come from different tables or passages of the source.

Regarding `CCN1CC2(CCOCC2)c2ccc(-c3cc(N(CC)C4CCOCC4)c(C)c(C(=O)NCc4c(C)cc(C)[nH]c4=O)c3Cl)cc21` [Example 54, 2-chloro-N-((4,6-dimethyl-2-carbonyl-1,2-dihydropyridin-3-yl)methyl)-5-(ethyl(tetrahydro-2H-pyran-4-yl)amino)-3-(1-ethyl-2′,3′,5′,6′-tetrahydrospiro[dihydroindole-3,4′-pyran]-6-yl)-6-methylbenzamide], the IC50 in data set [1] was 1.87 nM; in data set [2] (setting [4]), 3.67 nM.
As for `CCN(c1cc(-c2ccc3c(c2)N(C(=O)C(F)(F)F)CC32CCOCC2)cc(C(=O)NCc2c(C)cc(C)[nH]c2=O)c1C)C1CCOCC1` [Example 75, 5-(1-trifluoroacetyl-2′,3′,5′,6′-tetrahydrospiro[dihydroindole-3,4′-pyran]-6-yl)-N-((4,6-dimethyl-2-carbonyl-1,2-dihydropyridin-3-yl)methyl)-3-(ethyl(tetrahydro-2H-pyran-4-yl)amino)-2-methylbenzamide], the IC50 in data set [1] was 0.87 nM.
Usually bioavailability stands for dose-corrected exposure relative to a reference, in per cent. Regarding `CCN1C(=O)C2(CCOCC2)c2ccc(-c3cc(C(=O)NCc4c(C)cc(C)[nH]c4=O)c(C)c(N(CC)C4CCOCC4)c3)cc21` [Example 18, N-((4,6-dimethyl-2-carbonyl-1,2-dihydropyridin-3-yl)methyl)-3-(ethyl(tetrahydro-2H-pyran-4-yl)amino)-5-(1-ethyl-2-carbonyl-2′,3′,5′,6′-tetrahydrospiro[dihydroindole-3,4′-pyran]-6-yl)-2-methylbenzamide], the AUC in data set [3] (setting [5]) was 932 ng·h/mL. The half-life in data set [3] is 1.35 h. In data set [3] (setting [6]), the AUC was determined as 1190 ng·h/mL and the Cmax was found to be 472 ng/mL. Besides, the bioavailability in data set [3] (setting [7]) came to 25.5%.
The matching figures for `CCN(c1cc(-c2ccc3c(c2)NC(=O)C32CCOCC2)cc(C(=O)NCc2c(OC)cc(C)[nH]c2=O)c1C)C1CCNCC1` [Example 3, 3-(ethyl(piperidin-4-yl)amino)-N-((4-methoxy-6-methyl-2-oxo-1,2-dihydropyridin-3-yl)methyl)-2-methyl-5-(2-oxo-2′,3′,5′,6′-tetrahydrospiro[dihydroindole-3,4′-pyran]-6-yl)benzamide]: 948 ng·h/mL, 1.15 h, 1570 ng·h/mL, 415 ng/mL and 33.1%.
Regarding `CCN(c1cc(-c2ccc3c(c2)N(C)CC32CCOCC2)cc(C(=O)NCc2c(OC)cc(C)[nH]c2=O)c1C)C1CCN(CC(F)(F)F)CC1` [Example 40, 3-(ethyl(1-(2,2,2-trifluoroethyl)piperidin-4-yl)amino)-N-((4-methoxy-6-methyl-2-carbonyl-1,2-dihydropyridin-3-yl)methyl)-2-methyl-5-(1-methyl-2′,3′,5′,6′-tetrahydrospiro[dihydroindole-3,4′-pyran]-6-yl)benzamide], the IC50 was 2.49 nM in data set [1] and 3.09 nM in data set [2] (setting [4]).
The matching figures for `CCN(c1cc(-c2ccc3c(c2)N(CC(F)(F)F)CC32CCOCC2)cc(C(=O)NCc2c(C)cc(C)[nH]c2=O)c1C)C1CCOCC1` [Example 20, N-((4,6-dimethyl-2-carbonyl-1,2-dihydropyridin-3-yl)methyl)-3-(ethyl(tetrahydro-2H-pyran-4-yl)amino)-2-methyl-5-(1-(2,2,2-trifluoroethyl)-2′,3′,5′,6′-tetrahydrospiro[dihydroindole-3,4′-pyran]-6-yl)benzamide]: 2.32 nM and 3.03 nM.
As for `CCN(c1cc(-c2ccc3c(c2)N(C(C)C)CC32CCOCC2)c(Cl)c(C(=O)NCc2c(OC)cc(C)[nH]c2=O)c1C)C1CCOCC1` [Example 49, 2-chloro-5-(ethyl(tetrahydro-2H-pyran-4-yl)amino)-3-(1-isopropyl-2,3,5,6-tetrahydrospiro[dihydroindole-3,4-pyran]-6-yl)-N-((4-methoxy-6-methyl-2-oxo-1,2-dihydropyridin-3-yl)methyl)-6-methylbenzamide], the AUC in data set [3] (setting [5]) worked out at 997 ng·h/mL; in data set [3] (setting [6]), 1300 ng·h/mL. For the same compound, the half-life in data set [3] is 1.31 h. For the same compound, in data set [3] (setting [6]), the Cmax stood at 598 ng/mL. For the same compound, the bioavailability in data set [3] (setting [7]) turned out to be 26.2%.
Consider `CCN(c1cc(-c2ccc3c(c2)N(CCC(F)(F)F)CC32CCOCC2)cc(C(=O)NCc2c(C)cc(C)[nH]c2=O)c1C)C1CCOCC1` [Example 26, N-((4,6-dimethyl-2-oxo-1,2-dihydropyridin-3-yl)methyl)-3-(ethyl(tetrahydro-2H-pyran-4-yl)amino)-2-methyl-5-(1-(3,3,3-trifluoropropyl)-2′,3′,5′,6′-tetrahydrospiro[indoline-3,4′-pyran]-6-yl)benzamide], for which the IC50 in data set [1] is 1.85 nM; in data set [2] (setting [4]) it was 2.53 nM.
For `CCN(c1cc(-c2cc3c(cc2F)CCC32CCOCC2)cc(C(=O)NCc2c(OC)cc(C)[nH]c2=O)c1C)C1CCOCC1` [Example 16, 3-(ethyl(tetrahydro-2H-pyran-4-yl)amino)-5-(5-fluoro-2,2′,3,3′,5′,6′-hexahydrospiro[indene-1,4′-pyran]-6-yl)-N-((4-methoxy-6-methyl-2-carbonyl-1,2-dihydropyridin-3-yl)methyl)-2-methylbenzamide], the AUC in data set [3] (setting [5]) stood at 956 ng·h/mL. For the same compound, in data set [3], the half-life is 1.42 h. Further, in data set [3] (setting [6]), the AUC was 1310 ng·h/mL and the Cmax was determined as 480 ng/mL. The bioavailability in data set [3] (setting [7]) came out at 27.4%.
For `CCN(c1cc(-c2ccc3c(c2)N(C)CC32CCN(C(=O)OC)CC2)cc(C(=O)NCc2c(C)cc(C)[nH]c2=O)c1C)C1CCOCC1` [Example 33, Methyl 6-(3-(((4,6-dimethyl-2-carbonyl-1,2-dihydropyridin-3-yl)methyl)carbamoyl)-5-(ethyl(tetrahydro-2H-pyran-4-yl)amino)-4-methylphenyl)-1-methylspiro[dihydroindole-3,4′-piperidine]-1′-carboxylate], the results for the IC50 in data set [1] and in data set [2] (setting [4]) were 3.1 nM and 4.92 nM, respectively.
The matching figures for `CCCN1CC2(CCOCC2)c2ccc(-c3cc(N(CC)C4CCOCC4)c(C)c(C(=O)NCc4c(C)cc(C)[nH]c4=O)c3F)cc21` [Example 59, N-((4,6-dimethyl-2-carbonyl-1,2-dihydropyridin-3-yl)methyl)-3-(ethyl(tetrahydro-2H-pyran-4-yl)amino)-6-fluoro-2-methyl-5-(1-propyl-2′,3′,5′,6′-tetrahydrospiro[dihydroindole-3,4′-pyran]-6-yl)benzamide]: 1.97 nM and 3.35 nM.
As to `CCN(c1cc(-c2ccc3c(c2)NC(=O)C32CCNCC2)cc(C(=O)NCc2c(OC)cc(C)[nH]c2=O)c1C)C1CCNCC1` [Example 116, 3-(Ethyl(piperidin-4-yl)amino)-N-((4-methoxy-6-methyl-2-oxo-1,2-dihydropyridin-3-yl)methyl)-2-methyl-5-(2-oxospiro[indole-3,4′-piperidine]-6-yl)benzamide], the bioavailability in data set [3] (in vivo, po, 20 mg/kg) amounted to 34.3%. Further, in data set [3] (setting [5]), the AUC is 912 ng·h/mL. The half-life in data set [3] was 1.05 h. For the same compound, in data set [3] (setting [6]), the AUC turned out to be 1570 ng·h/mL and the Cmax is 453 ng/mL.
Consider `CCN(c1cc(-c2ccc3c(c2)N(C)C(=O)C32CCN(C(C)C)CC2)c(F)c(C(=O)NCc2c(C)cc(C)[nH]c2=O)c1C)C1CCOCC1` [Example 61, N-((4,6-dimethyl-2-oxo-1,2-dihydropyridin-3-yl)methyl)-3-(ethyl(tetrahydro-2H-pyran-4-yl)amino)-6-fluoro-5-(1′-isopropyl-1-methyl-2-oxospiro[dihydroindole-3,4′-piperidine]-6-yl)-2-methylbenzamide], for which the AUC in data set [3] (setting [5]) was 932 ng·h/mL. In data set [3], the half-life is 1.72 h. Further, in data set [3] (setting [6]), the AUC stood at 1250 ng·h/mL and the Cmax stood at 426 ng/mL. In addition, the bioavailability in data set [3] (setting [7]) worked out at 26.8%.
As for `CCN(c1cc(-c2ccc3c(c2)N(C(C)C)C(=O)C32CCOCC2)cc(C(=O)NCc2c(OC)cc(C)[nH]c2=O)c1C)C1CCOC(C)(C)C1` (stereo not shown) [Example 64, 3-((2,2-dimethyltetrahydro-2H-pyran-4-yl)(ethyl)amino)-5-(1-isopropyl-2-carbonyl-2′,3′,5′,6′-tetrahydrospiro[dihydroindole-3,4′-pyran]-6-yl)-N-((4-methoxy-6-methyl-2-carbonyl-1,2-dihydropyridin-3-yl)methyl)-2-methylbenzamide], the IC50 in data set [2] (setting [8]) was 0.81 nM.
Consider `CCN(c1cc(-c2ccc3c(c2)C2(CC3)CC(C)N(CC)C(C)C2)cc(C(=O)NCc2c(OC)cc(C)[nH]c2=O)c1C)C1CCOCC1` (stereo not shown) [Example 50, 3-(ethyl(tetrahydro-2H-pyran-4-yl)amino)-5-(1′-ethyl-2′,6′-dimethyl-2,3-dihydrospiro[indene-1,4′-piperidine]-6-yl)-N-((4-methoxy-6-methyl-2-oxo-1,2-dihydropyridin-3-yl)methyl)-2-methylbenzamide formate], for which, in data set [3] (setting [5]), the AUC was 954 ng·h/mL. Further, the half-life in data set [3] was 1.34 h. For the same compound, in data set [3] (setting [6]), the AUC was found to be 1350 ng·h/mL and the Cmax turned out to be 448 ng/mL. The bioavailability in data set [3] (setting [7]) came out at 28.2%. The IC50 in data set [2] (setting [8]) is 1.08 nM.
In the case of `CCN(c1cc(-c2ccc3c(c2)NC(=O)C32CCOCC2)cc(C(=O)NCc2c(OC)cc(C)[nH]c2=O)c1C)C1CCOCC1` [Example 115, 3-(Ethyl(tetrahydro-2H-pyran-4-yl)amino)-N-((4-methoxy-6-methyl-2-oxo-1,2-dihydropyridin-3-yl)methyl)-2-methyl-5-(2-oxo-2′,3′,5′,6′-tetrahydrospiro[dihydroindole-3,4′-pyran]-6-yl)benzamide], the AUC in data set [3] (setting [5]) was found to be 948 ng·h/mL. The half-life in data set [3] is 1.15 h. In data set [3] (setting [6]), the AUC came out at 1570 ng·h/mL and the Cmax is 415 ng/mL. The bioavailability in data set [3] (setting [7]) turned out to be 33.1%.

The record behind these values is patent publication US12473298B2, “Amide compounds, preparation method therefor, and use thereof in the medical field” (Shanghai Synergy Pharmaceutical Sciences Co., Ltd., priority 2019, dated 2025).
